# Test results published in patent publication US11420969B2 (Exonate Limited, priority 2017, dated 2022).
# Key:
# CYP2C9 = target: T1, CYP2C9 (Homo sapiens, UniProt P11712); assay: CYP inhibition assay, human liver microsomes, substrate diclofenac; type: in vitro ADME; settings: human liver microsomes, 10 min incubation, LC-MS/MS; read-out: CYP Inhibition Activity (IC50/nM) CYP2C9
# T1 construct: from tissue; host or cells: human liver microsomes
# Protocol: (§1) 2 μL of test compound/Positive Inhibitor working solutions is then added to the reaction plate (2 μL/well). For control, 2 μL of Acetonitrile (ACN) containing DMSO (without inhibitor) is added to the reaction plate. 20 μL of substrate pool is added to all the wells of the reaction plate. The samples are mixed in a vortexer and pre-incubated at 37° C. for 20 min. The NADPH solution is pre-warmed at 37° C. for 5 min. 20 μL of pre-warmed NADPH solution is added to the reaction plate and then incubated at 37° C. for 10 min. The reaction is terminated by adding cold ACN (200 μL/well) to the reaction mixture and centrifuging at 4,000 rpm for 20 minutes. After centrifugation, supernatant is separated and analyzed by LC-MS/MS.
# (§2) % inhibition and IC50 are calculated using Graphpad Prism software.
# CYP2D6 = target: T2, CYP2D6 (Homo sapiens, UniProt P10635); assay: biochemical; type: in vitro ADME
# T2 construct: from tissue; host or cells: human liver microsomes
# Protocol: 158 μL of Human Liver Microsomes working stock solution is added to a reaction plate (0.253 mg/mL, 158 μL/well). 2 μL of test compound/Positive Inhibitor working solutions is then added to the reaction plate (2 μL/well). For control, 2 μL of Acetonitrile (ACN) containing DMSO (without inhibitor) is added to the reaction plate. 20 μL of substrate pool is added to all the wells of the reaction plate. The samples are mixed in a vortexer and pre-incubated at 37° C. for 20 min. The NADPH solution is pre-warmed at 37° C. for 5 min. 20 μL of pre-warmed NADPH solution is added to the reaction plate and then incubated at 37° C. for 10 min. The reaction is terminated by adding cold ACN (200 μL/well) to the reaction mixture and centrifuging at 4,000 rpm for 20 minutes. After centrifugation, supernatant is separated and analyzed by LC-MS/MS.
# as §2
# CYP1A2 = target: T3, CYP1A2 (Homo sapiens, UniProt P05177); assay: CYP inhibition assay, human liver microsomes, substrate tacrine; type: in vitro ADME; settings: human liver microsomes, 10 min incubation, LC-MS/MS; read-out: CYP Inhibition Activity (IC50/nM) CYP1A2
# T3 construct: from tissue; host or cells: human liver microsomes
# T3 sequence (P05177 1-516): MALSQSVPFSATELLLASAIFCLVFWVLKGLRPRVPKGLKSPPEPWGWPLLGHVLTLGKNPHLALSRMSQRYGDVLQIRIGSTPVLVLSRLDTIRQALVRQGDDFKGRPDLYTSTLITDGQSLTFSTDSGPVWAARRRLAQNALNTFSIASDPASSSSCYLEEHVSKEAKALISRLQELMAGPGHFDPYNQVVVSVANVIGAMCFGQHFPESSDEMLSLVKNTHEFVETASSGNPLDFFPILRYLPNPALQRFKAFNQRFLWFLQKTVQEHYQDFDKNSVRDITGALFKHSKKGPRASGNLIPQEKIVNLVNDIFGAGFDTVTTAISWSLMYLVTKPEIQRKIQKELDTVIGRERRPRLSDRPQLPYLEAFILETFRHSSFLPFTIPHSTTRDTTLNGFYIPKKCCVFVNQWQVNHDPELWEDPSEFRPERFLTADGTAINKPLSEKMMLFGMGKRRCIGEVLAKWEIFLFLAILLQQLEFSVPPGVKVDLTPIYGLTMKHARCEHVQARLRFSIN
# Protocol: as §1, §2
# SRPK1 = SRPK1 (Homo sapiens, UniProt Q96SB4); assay: In vitro SRPK1 assay (Kinase-Glo); type: biochemical
# CYP2C19 = target: T4, CYP2C19 (Homo sapiens, UniProt P33261); assay: CYP inhibition assay, human liver microsomes, substrate S-mephenytoin; type: in vitro ADME; settings: human liver microsomes, 10 min incubation, LC-MS/MS; read-out: CYP Inhibition Activity (IC50/nM) CYP2C19
# T4 construct: from tissue; host or cells: human liver microsomes
# Protocol: as §1, §2
# CYP3A4 = target: T5, CYP3A4 (Homo sapiens, UniProt P08684); assay: CYP inhibition assay, human liver microsomes, substrate midazolam; type: in vitro ADME; settings: human liver microsomes, 10 min incubation, LC-MS/MS; read-out: CYP Inhibition Activity (IC50/nM) CYP3A4
# T5 construct: from tissue; host or cells: human liver microsomes
# Protocol: as §1, §2
# T2 sequence (P10635 whole entry): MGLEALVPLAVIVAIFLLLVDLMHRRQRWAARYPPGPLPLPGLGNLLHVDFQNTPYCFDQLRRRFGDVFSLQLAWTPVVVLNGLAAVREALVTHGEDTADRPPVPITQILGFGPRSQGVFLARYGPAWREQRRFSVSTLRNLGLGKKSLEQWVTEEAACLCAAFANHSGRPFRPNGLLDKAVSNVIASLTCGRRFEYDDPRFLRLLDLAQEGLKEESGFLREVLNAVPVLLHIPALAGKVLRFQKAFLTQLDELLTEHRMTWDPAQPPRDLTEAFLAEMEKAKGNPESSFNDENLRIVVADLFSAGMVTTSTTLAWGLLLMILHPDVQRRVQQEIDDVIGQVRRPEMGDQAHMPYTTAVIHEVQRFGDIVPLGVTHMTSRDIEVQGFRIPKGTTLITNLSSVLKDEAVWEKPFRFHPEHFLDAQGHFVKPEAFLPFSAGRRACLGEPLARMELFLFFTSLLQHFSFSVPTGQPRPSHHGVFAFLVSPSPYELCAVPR
# T4 sequence (P33261 whole entry): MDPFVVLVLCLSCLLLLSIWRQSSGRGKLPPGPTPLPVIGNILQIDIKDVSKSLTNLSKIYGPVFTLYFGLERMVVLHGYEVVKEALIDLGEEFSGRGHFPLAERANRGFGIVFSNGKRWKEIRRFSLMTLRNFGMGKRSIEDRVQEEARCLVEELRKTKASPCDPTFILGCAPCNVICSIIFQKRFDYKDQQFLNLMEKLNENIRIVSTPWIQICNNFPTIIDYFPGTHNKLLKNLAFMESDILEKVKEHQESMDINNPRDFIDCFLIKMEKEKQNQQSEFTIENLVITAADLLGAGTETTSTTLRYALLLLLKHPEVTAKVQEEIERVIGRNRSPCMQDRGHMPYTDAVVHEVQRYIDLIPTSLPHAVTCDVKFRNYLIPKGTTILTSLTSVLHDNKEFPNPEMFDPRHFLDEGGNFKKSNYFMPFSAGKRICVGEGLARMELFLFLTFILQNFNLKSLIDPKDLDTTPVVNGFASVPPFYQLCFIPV
# Chain of SRPK1 (Q96SB4 whole entry, species assumed): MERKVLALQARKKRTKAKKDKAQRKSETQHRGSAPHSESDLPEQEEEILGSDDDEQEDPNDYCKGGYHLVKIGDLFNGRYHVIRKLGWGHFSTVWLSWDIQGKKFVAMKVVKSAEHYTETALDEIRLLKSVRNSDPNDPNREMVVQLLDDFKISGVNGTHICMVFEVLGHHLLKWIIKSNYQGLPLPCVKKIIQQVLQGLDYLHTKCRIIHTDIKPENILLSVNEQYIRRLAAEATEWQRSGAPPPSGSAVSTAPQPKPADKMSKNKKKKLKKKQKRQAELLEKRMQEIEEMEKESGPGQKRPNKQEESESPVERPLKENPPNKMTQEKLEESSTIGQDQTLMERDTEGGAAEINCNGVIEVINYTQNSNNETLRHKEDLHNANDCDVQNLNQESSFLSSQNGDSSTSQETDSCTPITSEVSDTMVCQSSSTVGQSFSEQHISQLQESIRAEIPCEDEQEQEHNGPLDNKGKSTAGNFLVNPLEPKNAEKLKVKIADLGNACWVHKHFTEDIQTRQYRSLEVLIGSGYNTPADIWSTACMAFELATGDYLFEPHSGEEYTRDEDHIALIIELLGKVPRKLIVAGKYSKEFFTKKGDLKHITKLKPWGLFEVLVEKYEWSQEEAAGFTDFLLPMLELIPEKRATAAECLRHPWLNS
# T5 sequence (P08684 whole entry): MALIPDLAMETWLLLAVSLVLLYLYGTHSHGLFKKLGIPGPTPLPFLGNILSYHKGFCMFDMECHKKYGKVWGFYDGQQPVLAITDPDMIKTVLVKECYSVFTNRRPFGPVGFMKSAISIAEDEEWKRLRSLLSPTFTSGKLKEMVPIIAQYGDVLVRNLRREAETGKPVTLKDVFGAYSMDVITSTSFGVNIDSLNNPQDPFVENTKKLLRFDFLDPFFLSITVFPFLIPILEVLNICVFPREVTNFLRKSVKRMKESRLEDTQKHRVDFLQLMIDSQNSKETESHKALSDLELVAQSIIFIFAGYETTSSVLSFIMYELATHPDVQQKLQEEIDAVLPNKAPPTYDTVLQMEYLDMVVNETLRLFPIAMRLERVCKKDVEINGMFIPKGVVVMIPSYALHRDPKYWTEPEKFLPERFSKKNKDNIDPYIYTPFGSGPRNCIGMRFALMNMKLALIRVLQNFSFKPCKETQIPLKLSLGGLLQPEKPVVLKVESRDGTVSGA
# T1 sequence (P11712 whole entry): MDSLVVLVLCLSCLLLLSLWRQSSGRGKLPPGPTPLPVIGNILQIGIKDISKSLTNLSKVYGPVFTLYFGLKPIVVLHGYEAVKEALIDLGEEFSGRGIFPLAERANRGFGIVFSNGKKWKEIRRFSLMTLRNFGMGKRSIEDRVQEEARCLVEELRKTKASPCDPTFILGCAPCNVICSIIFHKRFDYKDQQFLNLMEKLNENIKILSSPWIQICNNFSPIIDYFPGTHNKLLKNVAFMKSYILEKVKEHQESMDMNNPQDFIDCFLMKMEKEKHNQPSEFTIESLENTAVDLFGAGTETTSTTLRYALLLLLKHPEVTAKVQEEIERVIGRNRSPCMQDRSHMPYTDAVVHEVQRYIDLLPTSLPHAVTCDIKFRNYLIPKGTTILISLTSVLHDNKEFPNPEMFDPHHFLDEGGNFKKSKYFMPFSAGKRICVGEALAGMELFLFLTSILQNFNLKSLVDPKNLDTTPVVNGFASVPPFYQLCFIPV
IC50 (CYP2C9) [nM],IC50 (CYP2D6) [µM],IC50 (CYP1A2) [nM],IC50 (SRPK1) [nM],IC50 (CYP2C19) [nM],IC50 (CYP3A4) [nM],Structure (SMILES)
> 30000,> 30,13000,26,22900,> 30000,"CC1(O)CCN(c2ccc(C(F)(F)F)cc2NC(=O)c2ccc(-c3ccncc3)o2)C1 (racemic) [Example 55, N-(2-(3-hydroxy-3-methylpyrrolidin-1-yl)-5-(trifluoromethyl)-phenyl)-5-(pyridin-4-yl)furan-2-carboxamide]"
17800,0.2,> 30000,49,> 30000,7700,"CC1(CN2CCCCC2)CCN(c2ccc(C(F)(F)F)cc2NC(=O)c2ccc(C3CCOCC3)o2)CC1 [Example 96, N-(2-(4-methyl-4-(piperidin-1-ylmethyl)piperidin-1-yl)-5-(trifluoromethyl)phenyl)-5-(tetrahydro-2H-pyran-4-yl)furan-2-carboxamide]"
200,19.2,> 30000,9,4100,1100,"CN(C)C(=O)C1(C)CCN(c2ccc(C3CC3)cc2NC(=O)c2ccc(C3CCOCC3)o2)CC1 [Example 86, 1-(4-cyclopropyl-2-(5-(tetrahydro-2H-pyran-4-yl)furan-2-carboxamido)phenyl)-N,N,4-trimethyl-piperidine-4-carboxamide]"
790,4.83,11700,1.7,1010,1050,"CC1(O)CCN(c2ccc(C3CC3)cc2NC(=O)c2ccc(-c3ccncc3)o2)CC1 [Example 6, N-(5-cyclopropyl-2-(4-hydroxy-4-methylpiperidin-1-yl)phenyl)-5-(pyridin-4-yl)furan-2-carboxamide]"
10400,1.5,> 30000,150,> 30000,> 30000,"COc1ccc(N2CCC(C)(CN(C)C)CC2)c(NC(=O)c2ccc(C3CCOCC3)o2)c1 [Example 92, N-(2-(4-((dimethylamino)methyl)-4-methyl-piperidin-1-yl)-5-methoxyphenyl)-5-(tetrahydro-2H-pyran-4-yl)furan-2-carboxamide]"
> 30000,> 30,4700,56.1,27800,> 30000,"CC1CCN(c2ccc(C(F)(F)F)cc2NC(=O)c2ccc(C3CCOCC3)o2)CC1 [Example 35, N-(2-(4-methylpiperidin-1-yl)-5-(trifluoromethyl)-phenyl)-5-(tetrahydro-2H-pyran-4-yl)furan-2-carboxamide]"
17800,> 30,15300,9,16000,20900,"CC1(O)CCN(c2ccc(C(F)(F)F)cc2NC(=O)c2ccccn2)CC1 [Example 1, N-(2-(4-hydroxy-4-methylpiperidin-1-yl)-5-(trifluoromethyl)phenyl)picolinamide]"
12700,> 30,15300,39,12300,18800,O=C(Nc1cc(C(F)(F)F)ccc1N1CCC(O)(Cc2ccccc2)CC1)c1ccc(C2CCOCC2)o1 [Example 19]
15800,> 30,> 30000,5.6,> 30000,> 30000,"CC1(C)CCN(c2ccc(C3CC3)cc2NC(=O)c2ccc(C3CCOCC3)o2)CC1 [Example 64, N-(5-cyclopropyl-2-(4,4-dimethylpiperidin-1-yl)phenyl)-5-(tetrahydro-2H-pyran-4-yl)furan-2-carboxamide]"
14200,> 30,> 30000,25,> 30000,> 30000,"Cc1ccc(N2CCC(C)(C)CC2)c(NC(=O)c2ccc(C3CCOCC3)o2)c1 [Example 63, N-(2-(4,4-dimethylpiperidin-1-yl)-5-methylphenyl)-5-(tetrahydro-2H-pyran-4-yl)furan-2-carboxamide]"
15000,23.9,10500,54,10500,> 30000,"CC1(O)CCN(c2ccc(C3CC3)cc2NC(=O)c2ccc(C3CCOCC3)o2)C1 (racemic) [Example 59, N-(5-cyclopropyl-2-(3-hydroxy-3-methyl-pyrrolidin-1-yl)phenyl)-5-(tetrahydro-2H-pyran-4-yl)furan-2-carboxamide]"
610,16.6,> 30000,13,530,10300,"CC1(O)CCCN(c2ccc(C3CC3)cc2NC(=O)c2ccc(C3CCOCC3)o2)CC1 (racemic) [Example 42, N-(5-cyclopropyl-2-(4-hydroxy-4-methylazepan-1-yl)phenyl)-5-(tetrahydro-2H-pyran-4-yl)furan-2-carboxamide]"
> 30000,3,> 30000,4.8,> 30000,18000,"CN1CCC2(CCN(c3ccc(C(F)(F)F)cc3NC(=O)c3ccc(C4CCOCC4)o3)CC2)C1 [Example 99, N-(2-(2-methyl-2,8-diazaspiro[4.5]decan-8-yl)-5-(trifluoromethyl)phenyl)-5-(tetrahydro-2H-pyran-4-yl)furan-2-carboxamide]"
1440,9.54,> 30000,1.6,4780,970,"CN(C)C(=O)C1(C)CCN(c2ccc(C(F)(F)F)cc2NC(=O)c2ccc(C3CCOCC3)o2)CC1 [Example 77, N,N,4-trimethyl-1-(2-(5-(tetrahydro-2H-pyran-4-yl)furan-2-carboxamido)-4-(trifluoromethyl)-phenyl)piperidine-4-carboxamide]"
> 30000,> 30,> 30000,10.4,> 30000,> 30000,"O=C(Nc1cc(C(F)(F)F)ccc1N1CCCC(O)CC1)c1ccc(C2CCOCC2)o1 (racemic) [Example 47, N-(2-(4-hydroxyazepan-1-yl)-5-(trifluoromethyl)-phenyl)-5-(tetrahydro-2H-pyran-4-yl)furan-2-carboxamide]"
7300,13.8,> 30000,2.6,3200,2700,"CN1CCC2(CCN(c3ccc(C(F)(F)F)cc3NC(=O)c3ccc(C4CCOCC4)o3)CC2)C1=O [Example 100, N-(2-(2-methyl-1-oxo-2,8-diazaspiro[4.5]decan-8-yl)-5-(trifluoromethyl)phenyl)-5-(tetrahydro-2H-pyran-4-yl)furan-2-carboxamide]"
7640,1.04,> 30000,42,7340,3540,"CN(C)CC1(C)CCN(c2ccc(C(F)(F)F)cc2NC(=O)c2ccc(-c3ccncc3)o2)CC1 [Example 80, N-(2-(4-((dimethylamino)methyl)-4-methyl-piperidin-1-yl)-5-(trifluoromethyl)phenyl)-5-(pyridin-4-yl)furan-2-carboxamide]"
> 30000,> 30,> 30000,96,20100,> 30000,"C[C@]1(O)CCN(c2ccc(C(F)(F)F)cc2NC(=O)c2ccc(C3CCOCC3)o2)C1 [Example 51, (S)-N-(2-(3-hydroxy-3-methylpyrrolidin-1-yl)-5-(trifluoromethyl)phenyl)-5-(tetrahydro-2H-pyran-4-yl)furan-2-carboxamide]"
